The values below come from publication PMC11698746 (Scientific Reports, 2025).

The structures appear in SMILES notation. Like-named read-outs stand apart in the source and are kept apart here.

For series [1] the following is noted: cited from earlier work.
Series [2] in a line: Pharmacokinetics of HLF via oral administration. It is filed as in vivo, rat. Particulars: after intragastric administration of HLF.
Series [3] relates to rat intestine. It is filed as in vivo. The conditions noted are these: for detection in the effluent fluid: rat single-pass intestinal perfusion after HLF via jugular vein.
Series [4] in a line: Transport of flavonoids in HLF across Caco-2 cell monolayer. The class given is in vitro ADME. Particulars: human, Caco-2, Papp, Caco-2, range over HLF 50, 100 and 200 µg·mL^−1. (Passage across Caco-2 layers is used to estimate intestinal permeability.)
For series [5], the system named is intestinal microflora. In words: Metabolism of HLF by intestinal microflora. It is filed as in vitro ADME, rat. Particulars: anaerobic incubation 37 °C, up to 48 h.
Series [6] is described as follows: In situ recirculating intestinal perfusion. The class given is in vivo. The conditions noted are these: rat, other: in situ recirculating intestinal perfusion, absorption potential (Papp), rat small intestine, different concentrations of HLF.
The subject of series [7] is rat small intestine. Kind of series: In situ recirculating intestinal perfusion. It is filed as in vivo. Particulars: different concentrations of HLF.

Regarding `O=c1c(O[C@@H]2O[C@H](CO)[C@H](O)[C@H](O)[C@H]2O)c(-c2ccc(O)c(O)c2)oc2cc(O)cc(O)c12` [HP, hyperoside], in series [1] (previous study), the Papp was 1.87 ± 1.11 ×10^−7 cm·sec^−1. For the same compound, the “detection in the rat plasma and bile” value in series [2] is reported as “cannot be detected”. In addition, the “detection in the effluent fluid” value in series [3] is reported as “hardly detected”. This compound also displayed a Papp in series [4] of 0.226 to 0.383 ×10⁻⁶ cm/s. Further, in series [5], the “metabolism by the intestinal microflora” value is reported as “metabolized to QUE”. The compound further had a Papp at 3 h in series [6] of 0.255 to 0.427 ×10⁻⁶ cm/s. Further, in series [7], the “absorption extent (A)” value was found to be 11.40 ± 0.98 %·h^−1 and the “absorption potential (Papp)” value was 4.27 ± 0.36 ×10^−7 cm·sec^−1.

As for `C[C@@H]1O[C@@H](OC[C@H]2O[C@@H](Oc3c(-c4ccc(O)c(O)c4)oc4cc(O)cc(O)c4c3=O)[C@H](O)[C@@H](O)[C@@H]2O)[C@H](O)[C@H](O)[C@H]1O` [RUT, rutin], the Papp in series [1] (other study) was 1.03 ± 0.13 ×10^−5 cm·sec^−1; in series [4] it was 0.228 to 0.304 ×10⁻⁶ cm/s. Further, the “detection in the rat plasma and bile” value in series [2] is listed as “cannot be detected”. Besides, the “detection in the effluent fluid” value in series [3] is recorded as “hardly detected”. Besides, the “metabolism by the intestinal microflora” value in series [5] is on record as “metabolized to QUE”. For the same compound, the Papp at 3 h in series [6] fell in the range of 0.031 to 0.141 ×10⁻⁶ cm/s.

As for `O=c1cc(-c2ccc(O)cc2)oc2c([C@@H]3O[C@H](CO)[C@@H](O)[C@H](O)[C@H]3O)c(O)cc(O)c12` [VIT, vitexin], the “detection in the rat plasma and bile” value in series [2] was “cannot be detected”. Further, in series [3] (in the presence of VP vs absence), the “reduction of cumulative efflux amount” value is 47.63%. In addition, the “detection in the effluent fluid” value in series [3] is reported as “detected”. In series [4], this compound yielded a Papp of 0.218 to 0.383 ×10⁻⁶ cm/s. This compound registered a Papp at 3 h in series [6] of 0.031 to 0.141 ×10⁻⁶ cm/s.

As usually defined, the Papp is the rate of passage across a membrane or cell layer, normalised by area and donor concentration.
